From US20220152117A1, “METHODS OF PROMOTING CELLULAR MATURATION WITH AMPK ACTIVATORS” (UNIVERSITY OF WASHINGTON, priority 2019, published 2022)
Where “and” joins values, the source holds several entries; their conditions need not be identical. Equal entries are not always repeated.

Legend:
[1] = system: hPSC-CMs; assay: Mitochondrial oxidation of palmitate, Seahorse XF96 extracellular flux palmitate-albumin assay; type: cell-based, human; settings: 1 mM AICAR for 2 weeks
Protocol: The Seahorse XF96 extracellular flux Analyzer™ was used to assess the fatty acid oxidation capacity of the hPSC-CMs. XF96 plates were pre-treated with fibronectin at a concentration of 1 μg/cm^2. At around 20 days after induction of differentiation, the cardiomyocytes were seeded onto the XF96 plates at a density of 30,000 cells per well (2,500/mm^2). The cells were treated with 1 mM AICAR for two weeks before the palmitate-albumin assay. An hour prior to performing this assay, culture medium was exchanged for basal media (unbuffered DMEM, Sigma D5030, supplemented with 2 mM glutamine, 1 mM pyruvate, 25 mM glucose, and 400 μM carnitine). Palmitate-albumin complexes were made following the Seahorse Bioscience protocol. Substrates were injected during the measurements to achieve two spike concentrations of palmitate-albumin at 200 μM each. The oxygen consumption rates (OCR values) were further normalized to the number of cells present in each well, quantified by staining with Hoechst 33342 (Sigma-Aldrich) as measured using fluorescence at 355 nm excitation and 460 nm emission. The highest OCR values induced by palmitate-albumin were used for statistics. Due to variations in the absolute magnitude of OCR measurements in different experiments, the relative AICAR treated/untreated control levels were used to compare and summarize independent biological replicates (N=7).

[2] = system: hPSC-CMs; assay: Quantitative RT-PCR gene expression in cardiomyocytes; type: cell-based, human
Protocol: Total RNA was isolated using the Qiagen RNeasy Kit™, and mRNA was reverse transcribed using the Superscript™ III first strand cDNA synthesis kit (Invitrogen®). All primers were purchased from Real Time Primers, and qRT-PCR was performed using SYBR™ green chemistry and an ABI 7900HT instrument or TAQMAN™ with BIORad CXF384™. Samples were normalized using hypoxanthine-guanine phosphoribosylthransferase (HPRT) as a housekeeping gene. The sequences of the primers are listed below in Table 1. The primers used for titin isoforms were adapted from^29. All Q-RT-PCR assays were performed in triplicate on control and experimental groups and firstly normalized to hHPRT level and then normalized against control cardiomyocytes. N=4-5 independent experiments.

[3] = system: hiPSC-derived cardiomyocytes; assay: Contractile force assessment on micropost arrays; type: cell-based, human; settings: 1 mM AICAR for one week
Protocol: Contractile force was assessed using micropost arrays, following a procedure similar to previously reported studies on cardiomyocytes^2, 31, 32. The process used to fabricate the micropost arrays is described in detail elsewhere^33, 34. The microposts (6.45 μm in height, 2.3 μm in diameter, 6 μm center-to-center post spacing) were cast onto 25 mm diameter round #1 glass coverslips (VWR®). To enable cell attachment, the tips of these microposts were stamped with 50 μg/ml of mouse laminin (Life Technologies®) via microcontact printing, while the remaining surfaces of the micropost array were fluorescently stained with BSA conjugates with Alexa Fluor 594 and blocked with 0.2% Pluronic F-127 (in PBS)^34. Twenty days following differentiation, hiPSC-derived cardiomyocytes were seeded onto the micropost arrays in Attoflour chambers at a density of approximately 500,000 cells per chamber (˜100,000 cells/cm^2), in RPMI media supplemented with 5% fetal bovine serum. After 24 hours, the medium was replaced with serum-free RPMI-B27 plus insulin, which then was exchanged every other day. Beginning two days after seeding, half of the substrates were treated with 1 mM AICAR for one week. Prior to live imaging, the media was exchanged to Tyrode's buffer. Individual cardiomyocyte twitch forces were recorded under phase light using high-speed video microscopy in a live cell chamber at 37° C., as previously described^32. Only the contractile forces of single cardiomyocytes (no junctions with adjacent cells) with obvious beating activity were assessed. Post deflections were optically measured at approximately 100 frames/sec on a Nikon Ti-E™ upright microscope with a 60× water immersion objective. A custom-written MATLAB™ code was used to compare each time frame of the video to a reference fluorescent image taken at the base of the posts. Contractile forces were subsequently calculated by multiplying the deflection of each microposts by its bending stiffness: F=kδ (1) where F is the force at a single micropost, k is the post's bending stiffness (44.54 nN/μm for this study), and δ is the horizontal distance between the centroid of the post's tip and the centroid of the post's base. The total contractile force for each cardiomyocyte was calculated as the sum of the forces at each post beneath it. The passive tension, or baseline force, was defined as the contractile force when a cardiomyocyte was at rest, i.e. in between beats. The total twitch force was defined as the difference between the peak contractile force (achieved during a twitch) and the passive tension. Additionally, the average twitch force per post was analyzed in order to normalize the total twitch force by cell area. The average twitch force per post was calculated as the total twitch force divided by the number of posts underneath a cardiomyocyte. Passive tension, total twitch force, average twitch force per post, and beating frequency were used to compare the independent biological replicates (N=2, with 16-38 cells per independent biological replicate).

[4] = system: hiPSC-derived neurons; assay: Quantitative RT-PCR gene expression in neurons; type: cell-based, human
[5] = system: L6 myotube; settings: literature study (ref 44); cited from earlier work
[6] = AICAR treated vs control hPSC-CMs
[7] = hPSC-CMs, normalized to HPRT then to control cells
[8] = normalized to HPRT then to control cells

With NC(=O)c1ncn([C@@H]2O[C@H](CO)[C@@H](O)[C@H]2O)c1N [AICAR, 5-amino-4-imidazolecarboxamide riboside-1-β-D-ribofuranoside] the “increase in oxygen consumption rate (OCR) upon palmitate-albumin introduction” value [1] was 2.32±0.12 fold and ~2.3 fold, the cTnI expression levels [2, 6] was “upregulated” and the “ssTnI to cTnI ratio” value [2, 6] was “significantly downregulated”. The “titin N2B expression level” value [2, 6] was “significantly upregulated”, the “titin N2BA expression level” value [2, 6] was “did not change” and the “titin N2BA to N2B ratio” value [2, 6] was “significantly down-regulated”. The “total titin expression level” value [2, 6] was “did not change”, the “FABP and PDK4 gene expression levels in cardiomyocytes derived from RUES2 hESCs” value ([2]; RUES2 hESC-derived cardiomyocytes) was “same trend of changes” and the “fatty acid binding protein (FABP) expression level” value [2, 7] was “significant increase”. The “pyruvate dehydrogenase kinase-4 (PDK4) expression level” value [2, 7] was “significant increase”, the “PGC-1α mRNA level” value [2, 8] was 2.07±0.31 and the “estrogen-related receptor α (ERR α) mRNA level” value [2, 8] was 1.50±0.12. For the same compound, the “mitochondrial transcription factor A (TFAM) mRNA level” value [2, 8] was 2.03±0.11, the “peroxisome proliferator activated receptor alpha (PPARα) mRNA level” value [2, 8] was 1.78±0.22 and the KCNJ2 expression ([2]; vs. control) was 1.71±0.17 fold. The SCN5a expression ([2]; vs. control) was 1.58±0.2 fold, the “α-myosin heavy chain (α-MHC) expression” value ([2]; vs. control) was 2.64±0.51 fold and the beating frequency ([3]; control 0.87±0.07) was 0.49±0.04 Hz. For the same compound, the twitch force ([3]; control 9.7±0.7) was 14.1±1.6 nN/cell and ~14.1 nN/cell, the passive tension ([3]; control 82.68±4.35) was 114.77±7.93 nN/cell and the “cellular size on microposts” value ([3]; control 213±5) was 260±11 μm^2. For the same compound, the “average twitch force per post” value ([3]; controls ~1.2) was roughly 1.4 nN/post, the “NeuN mRNA in neurons” value ([4]; compared to control neurons) was “significant increase” and the “PPARα expression in neurons” value [4, 8] was “increased”. The “TFAM expression in neurons” value [4, 8] was “increased”, the “PDK4 expression in neurons” value ([4]; two weeks of treatment with AICAR every third day) was “increase” and the “ERK phosphorylation in L6 myotube” value [5] was “leads to ERK phosphorylation”.
